From patent publication US20260315611A1, “LINKER COMPOUNDS AND LIGAND-DRUG CONJUGATES, PREPARATION METHODS AND USES THEREOF” (Biocytogen Pharmaceuticals (Beijing) Co., Ltd., priority 2023, published 2026)

Columns and labels:
A431 cells = assay: anti-tumor activity in A431 xenograft model; assay type: in vivo, A431 xenograft in B-NDG mice; details: 10 mg/kg i.v. BIW x4
Method: (§1) The lengths of the long axis and the short axis of the tumor were measured and the volume of the tumor was calculated as 0.5×(long axis)×(short axis)2. […] Ti is the average tumor volume in the treatment group on day i. T0 is the average tumor volume in the treatment group on day zero. Vi is the average tumor volume in the control group on day i. V0 is the average tumor volume in the control group on day zero. T-test was performed for statistical analysis. […] P<0.05 is a threshold to indicate significant difference. The body weights of the mice were also measured throughout the entire administration period.
The ADCs were tested for their effects on tumor growth in vivo in a xenograft model of epidermoid carcinoma. Specifically, about 1×10^6 A431 cells were injected subcutaneously in B-NDG mice. When the tumors in the mice reached a volume of about 200 mm^3, the mice were randomly placed into different groups based on tumor volume. The mice were then injected with PBS, antibody, or ADCs by intravenous (i.v.) administration.

NCI-H292 cells = assay: anti-tumor activity in NCI-H292 xenograft model; assay type: in vivo, NCI-H292 xenograft in B-NDG mice; details: 10 mg/kg i.v. BIW x2
Method: as §1
The antibody or ADCs were tested for their effects on tumor growth in vivo in a xenograft model of lung cancer. Specifically, about 5×10^6 NCI-H292 cells were injected subcutaneously in B-NDG mice. When the tumors in the mice reached a volume of about 300 mm^3, the mice were randomly placed into different groups based on tumor volume. The mice were then injected with PBS, antibody, or ADCs by intravenous (i.v.) administration.

NCI-H226 = assay: in vitro killing activity; assay type: cell-based, Human; details: 120 h incubation
Method: (§2) Different concentrations of compounds CPT-1, CPT-2, CPT-3, CPT-4, Dxd (MedChem Express, Cat #: HY-13631D) and SN38 (MedChem Express, Cat #: HY-13704) were used to treat different human tumor cell lines, mice tumor cell lines, rat tumor cell lines or dog tumor cell lines cultured in a cell culture plate, respectively. And the killing activity was detected after 72 h-120 h incubation by IncuCyte (Sartorius AG, IncuCyte® S3) or MicroplateReader.

NCI-H1975 = assay: in vitro killing activity; assay type: cell-based, Human; details: 120 time of incubation
Method: as §2

SW620 = assay: in vitro killing activity; assay type: cell-based, Human; details: 120 h incubation
Method: as §2

LOVO = assay: in vitro killing activity; assay type: cell-based, Human; details: 120 h incubation
Method: as §2

Hela = assay: in vitro killing activity; assay type: cell-based, Human; details: 120 h incubation
Method: as §2

HuH-7 = assay: in vitro killing activity; assay type: cell-based, Human; details: 120 h incubation
Method: as §2

NCI-N87 = assay: in vitro killing activity; assay type: cell-based, Human; details: 120 time of incubation
Method: as §2

Pgp = details: cited from earlier work
L6 = assay: in vitro killing activity; assay type: cell-based, Rat; details: 120 h incubation
Method: as §2

PC12 = assay: in vitro killing activity; assay type: cell-based, Rat; details: 120 time of incubation
Method: as §2

Molecule | Tumor volume Day 17 (A431 cells) [mm^3] | Tumor volume Day 31 (A431 cells) [mm^3] | Tumor volume Day 0 (A431 cells; day of grouping (baseline)) [mm^3] | Tumor volume Day 21 (NCI-H292 cells) [mm^3] | Tumor volume Day 39 (NCI-H292 cells) [mm^3] | Tumor volume Day 0 (NCI-H292 cells; day of grouping (baseline)) [mm^3] | IC50 (NCI-H226) [nM] | IC50 (NCI-H1975) [nM] | IC50 (SW620) [nM] | IC50 (LOVO) [nM] | IC50 (Hela) [nM] | IC50 (HuH-7) [nM] | IC50 (NCI-N87) [nM] | Pgp substrate (Pgp) | IC50 (L6) [nM] | IC50 (PC12) [nM]
Sacituzumab govitecan: humanized anti-TROP2 monoclonal antibody-drug conjugate from Immunomedics, Inc | 682 ± 71 | 1554 ± 144 | 197 ± 6 | 428 ± 51 | 893 ± 62 | 297 ± 11 |  |  |  |  |  |  |  |  |  | 
CCc1c2c(nc3ccc(O)cc13)-c1cc3c(c(=O)n1C2)COC(=O)[C@]3(O)CC [SN38, reference compound] |  |  |  |  |  |  | 20.4 | 13.2 | 4.6 | 10.2 | 6.61 | 2.41 | 7.39 | Pgp substrates | 20.8 | 5.66
